The values that follow come from patent US4762846A (priority 1986, dated 1988).

Data set [1] concerns cerebellar Purkinje neurons. As to conditions: local administration, denervation or antipsychotics; cited from earlier work.
Data set [2] has as its target Phencyclidine Receptor. The class given is binding, rat. As to conditions: for IC50: read-out: Apparent IC50.
The conditions of data set [3]: cited from earlier work.
A further data set has as its system muscarinic receptors. The class given is binding, rat.
Data set [4] has as its system benzodiazepine receptors ([3H]diazepam site). The class given is binding, rat.
In data set [5] the target is phencyclidine receptors ([3H]PCP binding site). Also on record: species or system rat.
A further data set has as its target T1, opioid receptors (Rattus norvegicus, UniProt P33535).
T1 construct: from tissue; host or cells: brain tissue (rat, inferred from the sister test)
As to conditions: cited from earlier work.

Data set [6] has as its system Phencyclidine Receptor. The class given is binding, rat.
In data set [7] the test system is PCP receptors. Kind of data set: Scatchard analysis of [3H]TCP binding after treatment with affinity ligand. Details: species or system rat.
Data set [8] deals with PCP receptors. In words: [3H]PCP binding (Scatchard) in brain homogenates of rats pretreated i.c.v. with Metaphit or saline. Details: species or system rat (male Sprague-Dawley). As to conditions: saline-pretreated rats; mean ±S.E.
Data set [9] is described as follows: Water solubility of Metaphit salts. As to conditions: relative to the hydrochloride.

Several values for one entry are separate records, joined by “and”; a condition that tells them apart may be missing. Equal values may be shown once. Entries after “also recorded” stand apart in the source; their conditions may differ. Where a name gives a salt, the structure may show the parent alone. Read-outs that look alike come from different tables or passages of the source.

T1 sequence (P33535 whole entry): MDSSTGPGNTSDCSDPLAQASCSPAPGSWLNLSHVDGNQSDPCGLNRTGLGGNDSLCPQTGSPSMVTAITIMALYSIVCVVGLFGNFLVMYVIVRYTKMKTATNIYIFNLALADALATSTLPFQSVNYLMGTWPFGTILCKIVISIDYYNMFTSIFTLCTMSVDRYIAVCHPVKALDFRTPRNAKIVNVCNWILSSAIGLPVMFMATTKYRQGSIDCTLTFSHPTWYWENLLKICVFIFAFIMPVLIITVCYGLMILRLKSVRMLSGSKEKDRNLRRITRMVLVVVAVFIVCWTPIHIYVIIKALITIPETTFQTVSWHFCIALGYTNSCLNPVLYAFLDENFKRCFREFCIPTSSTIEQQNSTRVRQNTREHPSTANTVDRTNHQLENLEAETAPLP

In the case of `NCCc1cc(O)c(O)cc1O` [6-OHDA], the “effect on PCP/PCMP-induced depressions of cerebellar Purkinje neurons” value in data set [1] is on record as “completely eliminates stereospecific Purkinje cell responses to PCMP”.
As to `CCNC1(c2cccc(N=C=S)c2)CCCCC1` [Ethylphit], the IC50 – broadly, the concentration at which inhibition is half-maximal – at Phencyclidine Receptor [2] was found to be 3.84 µM.
`CC(C)NC1(c2cccc(N=C=S)c2)CCCCC1` [Isopropylphit]: at Phencyclidine Receptor [2], the IC50 stood at 2.7 µM.
Regarding `CNC1(c2ccccc2Cl)CCCCC1=O` (stereo not drawn) [Ketamine], the “psychotomimetic effects relative to PCP” value in data set [3] (in vivo) is “psychotomimetic effects that do not occur as frequently as with PCP”.
In the case of `S=C=Nc1cccc(C2(N3CCCCC3)CCCCC2)c1` [Metaphit, 1-[1-(3-isothiocyanatophenyl)cyclohexyl]piperidine], the “Maximum % Alkylation by 10 uM Metaphit” value (in the data set on muscarinic receptors; in [4]) was 0% in each case. In addition, in the data set with muscarinic receptors, the “irreversible loss of QNB binding” value was “without a significant loss of QNB binding”.
As to `CCNC1(c2ccccc2)CCCCC1` [PCE, (1-Phenylcyclohexyl)ethylamine], the IC50 in [5] (read-out: apparent IC50) came out at 0.24 µM.
On to `CC(C)NC1(c2ccccc2)CCCCC1` [PCI], for which the IC50 in data set [5] (read-out: apparent IC50) worked out at 0.05 µM.
Regarding `c1ccc(C2(N3CCCCC3)CCCCC2)cc1` [PCP, 1-(1-phenylcyclohexyl)piperidine], the half-inhibitory concentration (IC50) was 0.075 µM and 0.07 µM in [5] (read-out: IC50); 0.15 µM in data set [5] (read-out: apparent IC50); 25 µM against muscarinic receptors; > 200 µM in [4]; 13 µM at opioid receptors; 0.07 µM on Phencyclidine Receptor [2]. For the same compound, the “duration of psychological side effects” value in [3] (use as anesthetic) was “more than 12 hours”. Besides, the washout from homogenate result in the data set with Phencyclidine Receptor [6] (10 uM PCP alone) was “completely washed out of the homogenate”.
On to `c1csc(C2(N3CCCCC3)CCCCC2)c1` [TCP], for which the “potency relative to PCI” value in data set [5] is on record as “twice as potent as PCI”. Further, in the data set on Phencyclidine Receptor [2], the “affinity for the PCP receptor relative to PCP” value is “considerably higher affinity for the PCP receptor than PCP” and the IC50 was found to be 0.02 µM. In addition, the washout from homogenate result in the data set on Phencyclidine Receptor [6] is “completely washed out of the homogenate”.
For the compound `S=C=Nc1csc(C2(N3CCCCC3)CCCCC2)c1` [Thiophit], in the data set with PCP receptors [7] (10 μM affinity ligand), the “Bmax ([3H]-TCP) in treated tissue” value amounted to 700 fmol/mg protein and the “reduction in Bmax” value was ~30%. At PCP receptors [7] (10 μM affinity ligand, value is for [3H]-TCP (1.0 to 150 nM), read-out: Kd ([3H]-TCP) in treated tissue), the Kd (in general, the equilibrium constant for the complex coming apart) amounted to 0.027 µM. Besides, in the data set on Phencyclidine Receptor [2], the “affinity for the PCP receptor relative to other ligands” value was “much higher affinity for the PCP receptors; also recorded: considerably higher affinity for the PCP receptor than either of the other two affinity ligands”, the “potency relative to metaphit” value is reported as “three times as potent as metaphit” and the IC50 was found to be 0.9 µM.
`c1ccc(C2(N3CCCCC3)CCCCC2)cc1` [[3H]-PCP]: in data set [5] ([3H]-PCP), the “Non-specific binding of radioligand” value is on record as 30 % of the total binding. Also, the Kd at PCP receptors [8] turned out to be 0.237 ± 0.008 µM.
On to `c1csc(C2(N3CCCCC3)CCCCC2)c1` [[3H]-TCP], for which the Kd on PCP receptors [7] (control tissue, [3H]-TCP 1.0 to 150 nM, read-out: Kd for control ([3H]-TCP)) is 0.015 µM. Further, the “Non-specific binding of radioligand” value in the data set with Phencyclidine Receptor [2] stood at 10%.
On to `S=C=Nc1cccc(C2(N3CCCCC3)CCCCC2)c1` [methanesulfonate salt], for which the solubility in water result in data set [9] is listed as “considerably more soluble in water than the hydrochloride”.
Regarding lithium, the “effect on PCP/PCMP-induced depressions of cerebellar Purkinje neurons” value in [1] is reported as “strongly antagonized PCP-induced depressions”.
